Source: publication PMC2752989 (PLoS ONE, 2009)

How the values were obtained:
[1] = test system: bacteria; conditions: cited from earlier work
[2] = test system: Candida parapsilosis ATCC 90018; type: cell-based; conditions: pH 7.4
[3] = test system: C. parapsilosis ATCC 90018; type: cell-based, Candida parapsilosis; conditions: n = 3
[4] = test system: HaCaT keratinocytes

Row | Substance | antibacterial activity in physiological buffers and plasma [1] | antimicrobial activity (viable count) with Zn2+ [2] | antimicrobial activity (viable count) without Zn2+ [2] | antimicrobial activity in RDA at low pH versus normal pH [3] | antimicrobial activity in RDA with versus without Zn2+ [3] | cell permeabilization (LDH release) [4]
1 | HKHGHGHGKHKNKGKKNGKH [HKH20, kininogen-derived antimicrobial peptide] | retain antibacterial activity in physiological buffers as well as in plasma | – | – | – | – | –
2 | GHHPHGHHPHGHHPHGHHPH [GHH20, H-rich control peptide derived from histidine-rich glycoprotein] | – | dose-dependent killing | showed no antimicrobial activity | showed enhanced activity at low pH | significantly enhanced | –
3 | GKRKKKGKGLGKKRDPCLRKYK [GKR22] | retain antibacterial activity in physiological buffers as well as in plasma | – | – | – | – | –
4 | AHHAHAAHHAHAAHHAHAAHHAHA [AHH24, previously described H-rich control peptide] | – | dose-dependent killing | showed no antimicrobial activity | showed enhanced activity at low pH | significantly enhanced | –
5 | LL-37: classical human antimicrobial cathelicidin peptide, benchmark | – | – | – | – | – | less active
